# Data published in patent US20100267561A1, “HERBICIDAL PYRIDAZINONE DERIVATIVES” (priority 2007, published 2010).
# Where two headings read alike, the source gives them in different places.
# Columns and labels:
# Experiment in all cases: Test B pre-/postemergence plant response
# Assay type in all cases: in vivo
# [1] = system: common ragweed (Ambrosia elation); conditions: for pest or weed control at 31 g/ha / pest or weed control at 62 g/ha: Ambrosia, read-out: Plant response rating, Ragweed; for pest or weed control at 31 g/ha: 31 g ai/ha; for pest or weed control at 62 g/ha: 62 g ai/ha, 100 complete control
# How it was run: (§1)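 Seeds were sown and sprayed preemergence, while plants at 2 to 18 cm (1- to 4-leaf stage) got postemergence sprays. Compounds were formulated in a non-phytotoxic solvent mixture with surfactant. After 13 to 15 days in a greenhouse, injury was rated visually against untreated controls, 0 (no effect) to 100 (complete control).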
# [2] = system: catchweed bedstraw (Galium aparine); conditions: Preemergence
# How it was run: as §1
# [3] = system: cocklebur (Xanthium strumarium); conditions: for pest or weed control at 31 g/ha: 31 g ai/ha; for pest or weed control at 62 g/ha: 62 g ai/ha, 100 complete control
# How it was run: as §1
# [4] = system: Italian ryegrass (Lolium multiflorum); conditions: for pest or weed control at 31 g/ha / pest or weed control at 62 g/ha: Lolium multiflorum, read-out: Plant response rating, Ryegrass, Italian; for pest or weed control at 31 g/ha: 31 g ai/ha; for pest or weed control at 62 g/ha: 62 g ai/ha, 100 complete control
# How it was run: as §1
# [5] = system: goosegrass (Eleusine indica); conditions: for pest or weed control at 31 g/ha / pest or weed control at 62 g/ha: Eleusine indica, read-out: Plant response rating, Goosegrass; for pest or weed control at 31 g/ha: 31 g ai/ha; for pest or weed control at 62 g/ha: 62 g ai/ha, 100 complete control
# How it was run: as §1
# [6] = system: pigweed (Amaranthus retroflexus); conditions: for pest or weed control at 31 g/ha / pest or weed control at 62 g/ha: Amaranthus retroflexus, read-out: Plant response rating, Pigweed; for pest or weed control at 31 g/ha: 31 g ai/ha; for pest or weed control at 62 g/ha: 62 g ai/ha, 100 complete control
# How it was run: as §1
# [7] = system: Russian thistle (Salsola iberica); conditions: Preemergence
# How it was run: as §1
# [8] = system: woolly cupgrass (Eriochloa villosa); conditions: for pest or weed control at 31 g/ha: 31 g ai/ha; for pest or weed control at 62 g/ha: 62 g ai/ha, 100 complete control
# How it was run: as §1
# [9] = system: downy bromegrass (Bromus tectorum); conditions: for pest or weed control at 31 g/ha: 31 g ai/ha; for pest or weed control at 62 g/ha: 62 g ai/ha, 100 complete control
# How it was run: as §1
# [10] = system: large crabgrass (Digitaria sanguinalis); conditions: for pest or weed control at 31 g/ha: 31 g ai/ha; for pest or weed control at 62 g/ha: 62 g ai/ha, 100 complete control
# How it was run: as §1
# [11] = system: surinam grass (Brachiaria decumbens); conditions: for pest or weed control at 31 g/ha / pest or weed control at 62 g/ha: Urochloa decumbens, read-out: Plant response rating, Surinam Grass; for pest or weed control at 31 g/ha: 31 g ai/ha; for pest or weed control at 62 g/ha: 62 g ai/ha, 100 complete control
# How it was run: as §1
# [12] = system: common (oilseed) sunflower (Helianthus annuus); conditions: Preemergence
# How it was run: as §1
# soybean (Glycine max) = conditions: for plant injury at 31 g/ha / plant injury at 62 g/ha: Glycine max, read-out: Plant response rating, Soybean; for plant injury at 31 g/ha: 31 g ai/ha; for plant injury at 62 g/ha: 62 g ai/ha, 100 complete control
# How it was run: as §1
# [13] = 8 g ai/ha, postemergence, 0-100 scale
# [14] = 16 g ai/ha, postemergence, 0-100 scale
# [15] = post-emergence, Postemergence, scale 0 to 100
# [16] = post-emergence, Postemergence, scale 0 to 100, 0 no effect
# [17] = pre-emergence, Preemergence, scale 0 to 100 (0 no effect, 100 complete control)
# [18] = pre-emergence, Preemergence, 0 to 100 scale, 0 no effect
# [19] = Preemergence, 8 g ai/ha, scale 0 to 100 (0 no effect, 100 complete control)
# [20] = Preemergence, 16 g ai/ha, scale 0 to 100
# [21] = 8 g ai/ha, scale 0 to 100 (0 no effect, 100 complete control)
smiles,measurement,setting,value
"Cc1cc(-c2ccc(Br)cc2)nn1-c1c(O)cn[nH]c1=O [Compound 78, 4-[3-(4-bromophenyl)-5-methyl-1H-pyrazol-1-yl]-5-hydroxy-3(2H)-pyridazinone]",Ragweed plant response rating,[1]; [13],0
same,Ragweed plant response rating,[1]; [14],0
same,pest or weed control at 31 g/ha,[1]; [15],0%
same,pest or weed control at 62 g/ha,[1]; [16],60%
same,pest or weed control at 31 g/ha,[1]; [17],0%
same,pest or weed control at 62 g/ha,[1]; [18],0%
same,Ragweed plant response rating,[1]; [19],0
same,Ragweed plant response rating,[1]; [20],0
same,pest or weed control at 31 g/ha,"[2]; Galium aparine, pre-emergence, 31 g ai/ha, scale 0 to 100 (0 no effect, 100 complete control), read-out: Plant response rating, Galium",0%
same,pest or weed control at 62 g/ha,"[2]; Galium aparine, pre-emergence, 62 g ai/ha, 0 to 100 scale, 0 no effect, 100 complete control, read-out: Plant response rating, Galium",0%
same,Galium plant response rating,[2]; [21],0
same,Galium plant response rating,"[2]; 16 g ai/ha, scale 0 to 100",0
same,Cocklebur plant response rating,[3]; [13],0
same,Cocklebur plant response rating,[3]; [19],0
same,Cocklebur plant response rating,[3]; [20],0
same,pest or weed control at 16 g/ha,"[3]; Xanthium strumarium, post-emergence, Postemergence, 16 g ai/ha, scale 0 to 100, read-out: Plant response rating, Cocklebur",0%
same,pest or weed control at 31 g/ha,"[3]; Xanthium strumarium, post-emergence, Postemergence, scale 0 to 100, read-out: Plant response rating, Cocklebur",0%
same,pest or weed control at 62 g/ha,"[3]; Xanthium strumarium, post-emergence, Postemergence, scale 0 to 100, 0 no effect, read-out: Plant response rating, Cocklebur",0%
same,pest or weed control at 31 g/ha,"[3]; Xanthium strumarium, pre-emergence, Preemergence, scale 0 to 100 (0 no effect, 100 complete control), read-out: Plant response rating, Cocklebur",0%
same,pest or weed control at 62 g/ha,"[3]; Xanthium strumarium, pre-emergence, Preemergence, 0 to 100 scale, 0 no effect, read-out: Plant response rating, Cocklebur",0%
same,"Ryegrass, Italian plant response rating",[4]; [13],90
same,"Ryegrass, Italian plant response rating",[4]; [14],98
same,pest or weed control at 31 g/ha,[4]; [15],100%
same,pest or weed control at 62 g/ha,[4]; [16],100%
same,pest or weed control at 31 g/ha,[4]; [17],100%
same,pest or weed control at 62 g/ha,[4]; [18],100%
same,"Ryegrass, Italian plant response rating",[4]; [19],98
same,"Ryegrass, Italian plant response rating",[4]; [20],98
same,Goosegrass plant response rating,[5]; [13],70
same,Goosegrass plant response rating,[5]; [14],85
same,pest or weed control at 31 g/ha,[5]; [15],90%
same,pest or weed control at 62 g/ha,[5]; [16],100%
same,pest or weed control at 31 g/ha,[5]; [17],100%
same,pest or weed control at 62 g/ha,[5]; [18],100%
same,Goosegrass plant response rating,[5]; [19],85
same,Goosegrass plant response rating,[5]; [20],100
same,Pigweed plant response rating,[6]; [13],0
same,Pigweed plant response rating,[6]; [14],0
same,pest or weed control at 31 g/ha,[6]; [15],0%
same,pest or weed control at 62 g/ha,[6]; [16],0%
same,pest or weed control at 31 g/ha,[6]; [17],0%
same,pest or weed control at 62 g/ha,[6]; [18],0%
same,Pigweed plant response rating,[6]; [19],0
same,Pigweed plant response rating,[6]; [20],0
same,Russian Thistle plant response rating,[7]; [21],0
same,"Plant response rating, Russian Thistle","[7]; 31 g ai/ha, scale 0 to 100 (0 no effect, 100 complete control)",0
same,"Plant response rating, Russian Thistle","[7]; 62 g ai/ha, 0 to 100 scale, 0 no effect, 100 complete control",0
same,Russian Thistle plant response rating,"[7]; 16 g ai/ha, scale 0 to 100",0
same,"Cupgrass, Woolly plant response rating",[8]; [13],98
same,pest or weed control at 16 g/ha,"[8]; Eriochloa villosa, post-emergence, Postemergence, 16 g ai/ha, scale 0 to 100, read-out: Plant response rating, Cupgrass, Woolly",100%
same,pest or weed control at 31 g/ha,"[8]; Eriochloa villosa, post-emergence, Postemergence, scale 0 to 100, read-out: Plant response rating, Cupgrass, Woolly",100%
same,pest or weed control at 62 g/ha,"[8]; Eriochloa villosa, post-emergence, Postemergence, scale 0 to 100, 0 no effect, read-out: Plant response rating, Cupgrass, Woolly",100%
same,pest or weed control at 31 g/ha,"[8]; Eriochloa villosa, pre-emergence, Preemergence, scale 0 to 100 (0 no effect, 100 complete control), read-out: Plant response rating, Cupgrass, Woolly",100%
same,pest or weed control at 62 g/ha,"[8]; Eriochloa villosa, pre-emergence, Preemergence, 0 to 100 scale, 0 no effect, read-out: Plant response rating, Cupgrass, Woolly",100%
same,"Cupgrass, Woolly plant response rating",[8]; [19],65
same,"Cupgrass, Woolly plant response rating",[8]; [20],98
same,"Bromegrass, Downy plant response rating",[9]; [13],55
same,pest or weed control at 16 g/ha,"[9]; Bromus tectorum, post-emergence, Postemergence, 16 g ai/ha, scale 0 to 100, read-out: Plant response rating, Bromegrass, Downy",85%
same,pest or weed control at 31 g/ha,"[9]; Bromus tectorum, post-emergence, Postemergence, scale 0 to 100, read-out: Plant response rating, Bromegrass, Downy",95%
same,pest or weed control at 62 g/ha,"[9]; Bromus tectorum, post-emergence, Postemergence, scale 0 to 100, 0 no effect, read-out: Plant response rating, Bromegrass, Downy",100%
same,pest or weed control at 31 g/ha,"[9]; Bromus tectorum, pre-emergence, Preemergence, scale 0 to 100 (0 no effect, 100 complete control), read-out: Plant response rating, Bromegrass, Downy",80%
same,pest or weed control at 62 g/ha,"[9]; Bromus tectorum, pre-emergence, Preemergence, 0 to 100 scale, 0 no effect, read-out: Plant response rating, Bromegrass, Downy",98%
same,"Bromegrass, Downy plant response rating",[9]; [19],40
same,"Bromegrass, Downy plant response rating",[9]; [20],60
same,"Crabgrass, Large plant response rating",[10]; [13],98
same,pest or weed control at 16 g/ha,"[10]; Digitaria sanguinalis, post-emergence, Postemergence, 16 g ai/ha, scale 0 to 100, read-out: Plant response rating, Crabgrass, Large",100%
same,pest or weed control at 31 g/ha,"[10]; Digitaria sanguinalis, post-emergence, Postemergence, scale 0 to 100, read-out: Plant response rating, Crabgrass, Large",100%
same,pest or weed control at 62 g/ha,"[10]; Digitaria sanguinalis, post-emergence, Postemergence, scale 0 to 100, 0 no effect, read-out: Plant response rating, Crabgrass, Large",100%
same,pest or weed control at 31 g/ha,"[10]; Digitaria sanguinalis, pre-emergence, Preemergence, scale 0 to 100 (0 no effect, 100 complete control), read-out: Plant response rating, Crabgrass, Large",100%
same,pest or weed control at 62 g/ha,"[10]; Digitaria sanguinalis, pre-emergence, Preemergence, 0 to 100 scale, 0 no effect, read-out: Plant response rating, Crabgrass, Large",100%
same,"Crabgrass, Large plant response rating",[10]; [19],15
same,"Crabgrass, Large plant response rating",[10]; [20],95
same,Surinam Grass plant response rating,[11]; [13],98
same,Surinam Grass plant response rating,[11]; [14],100
same,Surinam Grass plant response rating,[11]; [19],95
same,Surinam Grass plant response rating,[11]; [20],95
same,pest or weed control at 31 g/ha,[11]; [15],100%
same,pest or weed control at 62 g/ha,[11]; [16],100%
same,pest or weed control at 31 g/ha,[11]; [17],100%
same,pest or weed control at 62 g/ha,[11]; [18],100%
same,pest or weed control at 31 g/ha,"[12]; Helianthus annuus, pre-emergence, 31 g ai/ha, scale 0 to 100 (0 no effect, 100 complete control), read-out: Plant response rating, Sunflower",0%
same,pest or weed control at 62 g/ha,"[12]; Helianthus annuus, pre-emergence, 62 g ai/ha, 0 to 100 scale, 0 no effect, 100 complete control, read-out: Plant response rating, Sunflower",0%
same,Sunflower plant response rating,[12]; [21],0
same,Sunflower plant response rating,"[12]; 16 g ai/ha, scale 0 to 100",0
same,Soybean plant response rating,soybean (Glycine max); [13],0
same,Soybean plant response rating,soybean (Glycine max); [14],15
same,plant injury at 31 g/ha,soybean (Glycine max); [15],20%
same,plant injury at 62 g/ha,soybean (Glycine max); [16],25%
same,plant injury at 31 g/ha,soybean (Glycine max); [17],0%
same,plant injury at 62 g/ha,soybean (Glycine max); [18],0%
same,Soybean plant response rating,soybean (Glycine max); [19],0
same,Soybean plant response rating,soybean (Glycine max); [20],0
